Columns and labels:
Test in all cases: relative viability (nuclei count vs DMSO), 5 days (fraction); higher = more cells survive
[1] = compound: C1=CC2=C(C=C(C(=C2N=C1)O)N=NC3=CC4=C(C=C3)C=C(C=C4)S(=O)(=O)O)S(=O)(=O)O
Procedure, shortened: (§1)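 Nuclei counted with MetaXpress define viability as the ratio of treated to vehicle wells, given as a median across plates. The lung cancer cell lines were in 1536-well plates, pinned with five √10-spaced library-drug doses and imaged at 4× after 5 days and Hoechst staining. Plates passed with control CV below 25% and at least one doubling.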

[2] = compound: O=C(NC1CCNCC1)c1n[nH]cc1NC(=O)c1c(Cl)cccc1Cl [AT-7519]
Procedure, shortened: as §1

[3] = compound: C1=CC2=C(C=C(C(=C2N=C1)O)N=NC3=CC4=C(C=C3)C=C(C=C4)S(=O)(=O)O)S(=O)(=O)O + CC1(C)CCC(c2ccc(Cl)cc2)=C(CN2CCN(c3ccc(C(=O)NS(=O)(=O)c4ccc(N[C@H](CCN5CCOCC5)CSc5ccccc5)c(S(=O)(=O)C(F)(F)F)c4)cc3)CC2)C1 [Navitoclax] (partner 0.5 µM)
Procedure, shortened: (§2)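 Lung cancer cell lines were seeded in 1536-well plates and dosed by pin tool the next day, with either a single drug or a fixed anchor-drug dose combined with five library-drug doses (not always all listed) spaced in √10 steps. Five days later, one step fixed the cells and stained their nuclei (final 0.05% Triton X-100, 1% formaldehyde, 1 ug/ml Hoechst), and nuclei were counted on 4× images. Relative viability is the nuclei count in treated wells divided by the count in vehicle wells, and each value is the median of duplicate plates.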

[4] = compound: C1=CC2=C(C=C(C(=C2N=C1)O)N=NC3=CC4=C(C=C3)C=C(C=C4)S(=O)(=O)O)S(=O)(=O)O + COc1cc2c(Oc3ccc(NC(=O)C4(C(=O)Nc5ccc(F)cc5)CC4)cc3F)ccnc2cc1OCCCN1CCOCC1 [Foretinib] (partner 0.25 µM)
Procedure, shortened: as §2

Cell Line	relative viability ([1]; 0.08 µM)	relative viability ([1]; 0.253 µM)	relative viability ([1]; 0.8 µM)	relative viability ([1]; 2.53 µM)	relative viability ([1]; 8 µM)	relative viability ([2]; 0.01 µM)	relative viability ([2]; 0.03162 µM)	relative viability ([2]; 0.3162 µM)	relative viability ([2]; 1 µM)	relative viability ([3]; first compound 0.08 µM)	relative viability ([3]; first compound 0.253 µM)	relative viability ([3]; first compound 0.8 µM)	relative viability ([3]; first compound 2.53 µM)	relative viability ([3]; first compound 8 µM)	relative viability ([4]; first compound 0.08 µM)	relative viability ([4]; first compound 0.253 µM)	relative viability ([4]; first compound 0.8 µM)	relative viability ([4]; first compound 2.53 µM)	relative viability ([4]; first compound 8 µM)
NCI-H1395	0.9	0.939	0.843	0.976	0.899	0.934	0.998	0.816	0.665	1.4	1.26	1.23	1.27	0.924	0.965	0.988	0.956	1.03	1
LU99A	1.02	0.936	0.901	0.95	0.948	1.02	0.857	0.826	0.974	0.815	0.913	0.8	0.813	0.742	0.958	0.812	0.684	0.913	0.732
NCI-H1355	1.08	0.982	0.965	0.993	0.856	1.01	0.961	0.992	1.05	1.03	0.944	0.913	1.03	0.96	1.1	0.988	0.92	1.03	0.996
HCC-78	1.03	0.957	0.894	1.03	0.95	0.999	0.93	1.06	1.05	0.776	0.667	0.879	0.826	0.757	0.608	0.571	0.525	0.563	0.3
HCC-15	1.14	1	1.03	0.97	0.963	1.03	0.911	0.897	0.754	0.754	0.693	0.692	0.693	0.705	1.15	0.972	0.936	1.07	0.985
EKVX	0.973	0.918	0.905	1.01	0.864	0.948	0.911	0.939	1.03	0.985	0.868	0.867	0.98	1.02	0.818	0.712	0.797	0.861	0.272
NCI-H2087	0.942	0.999	0.941	0.934	0.869	1.03	0.874	0.991	0.4	0.926	0.878	0.868	0.889	0.948	1.07	1.14	0.873	1.1	0.921
LK-2	1.05	0.973	0.876	0.911	0.797	0.961	0.934	0.857	0.682	1.01	0.797	0.888	0.79	0.687	1.33	1.3	0.899	0.911	1.37
NCI-H1437	1	1	0.988	1.05	0.912	0.985	0.99	0.999	0.879	1.08	1.08	1.11	1.16	1.08	1.33	1.23	1.32	1.27	0.66
COR-L23	1.09	1.04	1	1.05	0.946	1.12	0.865	0.936	0.424	1	0.969	1.06	1.06	0.612	1.01	0.961	1.02	1.06	0.995
NCI-H838	1	0.966	0.924	0.992	0.997	0.925	0.876	0.891	0.615	1.24	1.23	1.17	1.09	1.2	1.13	1.06	1.04	1.03	1.04
A549	1.1	0.986	0.926	1	0.884	0.978	0.903	0.931	0.792	1.18	1.16	1.27	1.17	0.934	1.06	0.954	0.929	0.928	0.928
A-427	1.05	0.971	0.936	0.963	0.842	1.11	1.02	0.944	0.723	1.06	1.04	0.83	1.12	1.02	0.986	1.06	1.01	1.08	1.03
LCLC-97TM1	1.16	0.873	0.833	0.926	0.999	0.918	0.892	0.844	0.47	–	0.224	–	0.509	0.41	0.938	0.932	0.865	0.93	0.986
NCI-H1703	0.942	0.772	0.99	0.884	1.04	0.865	0.845	0.866	0.261	1.02	1.16	1.12	1.27	1.13	0.334	–	0.356	0.363	0.302
PC-3 [JPC-3]	1.04	1.03	1.04	1.06	0.997	1.01	1.02	1.01	1.03	0.888	0.748	0.854	0.722	0.725	1.1	1.03	1.08	0.99	0.951
BEN	0.976	0.933	0.895	0.986	0.777	0.917	0.876	1.15	0.887	0.0579	0.0527	0.0545	0.0678	0.0519	0.489	0.521	0.732	0.686	0.429

— the supplement of paper PMC10307832
